Consider two compounds from patent publication US20140271644A1, “COMBINATION/ADJUVANT THERAPY FOR WT-1-POSITIVE DISEASE” (Memorial Sloan-Kettering Cancer Center, priority 2013, published 2014).

In data set [1] the test system is BV173 human leukemia cells. Nature of the data set: Dasatinib plus ESKM in BV173 human leukemia xenograft NSG model. Type of data set: in vivo, NSG mice. As to conditions: after 4 weeks of therapy; dasatinib 40 then 20 mg/kg daily IP, stopped on day 11; antibody 100 μg twice a week. The method, then: (§1) In vivo efficacy of ESKM with TKIs was evaluated using NSG mice injected with HLA-A0201^+ leukemic cell line BV173. The protocol used for imatinib and dasatinib therapy in combination with ESKM consisted of injecting 3×10^6 cells per mouse via tail vein, luciferin imaging 6 days after injection to assess tumor engraftment, and initiation of therapy immediately after imaging on day 6. Luciferin imaging was used weekly to monitor tumor growth. The TKI is injected intraperitoneally daily (50 mg/kg for imatinib and 20-40 mg/kg for dasatinib.) The antibody is injected intravenously twice per week.

For data set [2] the following is noted: mouse, in vivo.
Description: Three million BV173 human leukemia cells were injected IV by tail vein into NSG mice. […] Immediately after imaging on day 6, therapy was initiated with anti-WT-1 antibody ESKM 100 μg administered by intraperitoneal (IP) injection twice weekly. Dasatinib was also administered by IP injection at 40 mg/kg daily. […] Group A: No therapy; Group B: DMSO only (vehicle control); Group C: dasatinib treatment only; Group D: ESK treatment only; Group E: combination of both dasatinib daily and ESK twice weekly. […] The dose was decreased to 20 mg/kg. […] ESK antibody continued to be administered for the full 4 week treatment cycle. Tumor growth continued to be assessed by luminescence imaging weekly.
After 4 weeks of therapy, animals were imaged by fluorescent luciferin imaging, and the fluorescence was quantified using Living Image® software, quantifying mouse tumor burden.
The conditions of data set [3]: cited from earlier work.
For data set [4], the system named is BV173 cells. Nature of the data set: ADCC, chromium 51 release assay. As to conditions: imatinib 1 μM, 5 μM or 10 μM, various E:T ratios, fresh BV173 cells. It counts as cell-based, human. Here is the method: ADCC is considered to be one of the major effector mechanisms of therapeutic mAb in humans. Evaluation of efficacy, therefore, begins with in vitro experiments measuring ADCC against BV173 cell line, derived from CML in blastic crisis. Fresh BV173 cells were used for ADCC target cells. WT-1 antibody or its isotype control human IgG1 was incubated at 750 ng/ml with target cells and fresh PBMCs at different effector:target (E:T) ratio for 6 hrs. Imatinib was added at concentrations of 0, 1, 5, and 10 μM. The supernatants were harvested and the cytotoxicity was measured by standard chromium 51 release assay.

Data set [5] has as its system BV173 human leukemia cells. Put plainly: Imatinib plus ESKM in BV173 human leukemia xenograft NSG model. Type of data set: in vivo, NSG mice. As to conditions: after 5 weeks of therapy; imatinib 50 mg/kg daily IP; antibody 100 μg twice a week. The method, then:
as §1
Imatinib was also administered by IP injection at 50 mg/kg daily. Therapy continued for 5 weeks (10 doses of ESKM and 34 doses of imatinib per mouse). Group A: No therapy; Group B: imatinib treatment only; Group C: ESK treatment only; Group D: combination of both imatinib daily and ESK twice weekly. Tumor growth was assessed by luminescence imaging weekly, and clinical activity was assessed daily.
This allows for the quantification of mouse tumor burden. […] (FIG. 2)

Regarding `Cc1nc(Nc2ncc(C(=O)Nc3c(C)cccc3Cl)s2)cc(N2CCN(CCO)CC2)n1` [dasatinib], the “Tumor burden by luciferin imaging” value in data set [1] was “initially had clearance of tumor, but relapsed by week 4 of therapy”. Besides, in data set [2], the “Clinical condition of mice” value was “looked ill with significant weight loss” and the Discontinuation of therapy result is on record as “discontinued due to toxicity”. The “Solubility in aqueous solution” value in data set [3] is “not soluble in aqueous solution”.
Consider `Cc1ccc(NC(=O)c2ccc(CN3CCN(C)CC3)cc2)cc1Nc1nccc(-c2cccnc2)n1` [imatinib], for which the “Effect of imatinib on ADCC mediated by WT-1 antibody” value in data set [4] is recorded as “does not affect”. The “Tumor burden by luciferin imaging” value in data set [5] was “reduced tumor burden compared to control animals”.
